The target in test [1] is T1, DOR-2 (mMOR-1) mu receptor (Mus musculus, UniProt P42866, H54D/R258Q/R47P/S53N/V245G).
T1 construct: expressed in transfected cells
In kind it is binding, murine.

The target of test [2] is DOR-1 clone (delta opioid receptor) (Mus musculus, UniProt P32300, V68C).
In test [3] the target is receptor encoded by the DOR-1 clone (delta opioid receptor) (Mus musculus, UniProt P32300, V68C).

Peptide text beside a SMILES is read from it.

receptor encoded by the DOR-1 clone (delta opioid receptor), sequence (P32300 whole entry V68C): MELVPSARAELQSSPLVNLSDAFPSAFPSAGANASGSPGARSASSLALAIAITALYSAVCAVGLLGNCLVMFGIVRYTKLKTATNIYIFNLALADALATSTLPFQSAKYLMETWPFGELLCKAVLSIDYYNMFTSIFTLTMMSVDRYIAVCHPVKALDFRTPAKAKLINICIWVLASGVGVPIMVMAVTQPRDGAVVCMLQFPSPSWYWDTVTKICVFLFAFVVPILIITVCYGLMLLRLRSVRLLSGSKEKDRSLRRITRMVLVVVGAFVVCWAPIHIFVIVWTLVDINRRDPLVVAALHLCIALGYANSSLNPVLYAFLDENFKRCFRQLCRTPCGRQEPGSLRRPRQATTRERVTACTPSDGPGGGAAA
DOR-1 clone (delta opioid receptor), sequence (P32300 whole entry V68C): as above
T1 sequence (P42866 whole entry R47P/S53N/H54D/V245G/R258Q): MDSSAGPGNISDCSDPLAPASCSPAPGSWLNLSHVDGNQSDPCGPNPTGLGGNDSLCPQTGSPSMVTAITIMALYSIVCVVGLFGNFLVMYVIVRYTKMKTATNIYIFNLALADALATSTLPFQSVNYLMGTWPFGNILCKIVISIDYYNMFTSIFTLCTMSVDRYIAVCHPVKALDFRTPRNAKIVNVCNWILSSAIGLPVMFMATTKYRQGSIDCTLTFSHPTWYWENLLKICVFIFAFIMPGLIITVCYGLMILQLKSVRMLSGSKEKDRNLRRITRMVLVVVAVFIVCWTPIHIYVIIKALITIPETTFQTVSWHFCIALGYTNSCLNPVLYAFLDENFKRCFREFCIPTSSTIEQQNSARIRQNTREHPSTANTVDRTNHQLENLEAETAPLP
Text for opiate receptors: The purification of mono-iodinated from di-iodinated and non-iodinated DADLE by the HPLC step yields a ligand with very high specific activity (approximately 2000 Ci/mmol).

Take `C[C@@H](NC(=O)[C@@H](N)Cc1ccc(O)cc1)C(=O)NCC(=O)N(C)[C@@H](Cc1ccccc1)C(=O)NCCO` [DAGO, D-Alka^2-N-MePhe^4-Gly-ol^5-enkephalin]: the “displacement of 3H-DPN” value in test [1] was “displacement of ^3H-DPN by nanomolar concentrations”. In test [2], the “displacement of 125I-DADLE binding” value was “did not displace”. For the same compound, in test [3], the “displacement of 3H-diprenorphine” value is “Only weak displacement”.

As for `CN1CC[C@]23CCCC[C@H]2[C@H]1Cc1ccc(O)cc13` [levorphanol], the “displacement of 125I-DADLE binding” value in test [2] is “did displace”. In test [3], the “displacement of 3H-diprenorphine” value is given as “displaced”; the “displacement of 3H-diprenorphine, rank in decreasing order of affinity” value was “in decreasing order of affinity, was observed with diprenorphine, etorphine, levorphanol and morphine”.

Regarding `NC(=O)[C@@H]1CCCN1C(=O)[C@H](Cc1ccccc1)NC(=O)[C@@H]1CCCN1C(=O)[C@@H](N)Cc1ccc(O)cc1` [morphiceptin] (H-YPFP-NH2), in test [1], the “displacement of 3H-DPN” value is reported as “displacement of ^3H-DPN by nanomolar concentrations”.

Regarding “mono-^125I-2dAla, 5dLeu enkephalin [^125I-DADLE]”, the “binding affinity compared with DADLE” value in the test on opiate receptors is listed as “slightly lower”.

(Values after patent US7723071B2 (priority 1992, dated 2010).)
